Counter-ions that a name gives are not always drawn. Like-named read-outs stand apart in the source and are kept apart here.
Columns and labels:
[1] = target: T1, p53 Y220C mutant protein (amino acid residues 94-293) (Homo sapiens, UniProt P04637, Y220C); assay: Thermal Shift Assay (TSA), dTM; type: binding; conditions: for ΔTm at 100 µM: 100 uM compound, read-out: TSA P53 Y220C dTM (100 uM); for ΔTm at 10 µM: 10 uM compound
T1 construct: p53 Y220C mutant protein (amino acid residues 94-293)
Experimental: Thermal Shift Assay (TSA) Protocol
5 μM recombinant p53 Y220C mutant protein (amino acid residues 94-293) was incubated with 10 μM or 100 μM compound for 3 hours at 20 °C in buffer containing 20 mM HEPES, pH7.4, 100 mM NaCl, 0.01% Pluronic F-127, and 1% DMSO in the presence of 400-fold diluted Sypro Orange (ThermoFisher Scientific catalog number 4461146), on a 384-well PCR plate (Applied Biosystems catalog number 4483285). The volume was 5 μL/well. The sealed plate was then loaded onto a QuantStudio 7 Flex instrument for melting temperature (TM) measurement. The temperature was increased from 30 °C to […], at a rate of 0.03 °C/second. Data were fit into a Boltzmann two-state model to determine the TM.

H1299 p53 Y220C = assay: Cell Proliferation Assay (CellTiter-Glo, CTG), H1299 p53 Y220C (NClH1299-inducible p53 Y220C); type: cell-based; conditions: Homo sapiens, NCI-H1299, 120 h, 5 days
In short: (§1)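 NClH1299 lines stably transduced with Tet-inducible p53 Y220C or R273H, plus NUGC3, were treated with compound for 5 days at 250-500 cells/well. IC50 derived from CellTiter-Glo luminescent signal after 10 min room-temperature incubation.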

NUGC3 p53 Y220C = assay: Cell Proliferation Assay (CellTiter-Glo, CTG), NUGC3 p53 Y220C; type: cell-based; conditions: Homo sapiens, NUGC-3, 120 h, CellTiter-Glo, NUGC3 p53 Y220C, 5 days
In short: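 Tet-One inducible p53 Y220C or R273H constructs were stably introduced into NCI-H1299 by lentiviral transduction; NUGC3 was used as is. Cells (250-500 per well) were exposed to compound for 5 days, then CellTiter-Glo was added for 10 min at room temperature and IC50 was calculated from luminescence.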

H1299 p53 R273H = assay: Cell Proliferation Assay (CellTiter-Glo, CTG), H1299 p53 R273H (NClH1299-inducible p53 R273H); type: cell-based; conditions: Homo sapiens, NCI-H1299, 120 h, CellTiter-Glo, H1299 p53 R273H, 5 days
In short: as §1

p53 Y220C = p53 Y220C (Homo sapiens, UniProt P04637, Y220C); assay: Luciferase Reporter Assay (Luc), p53 response element, NClH1299 cells with inducible p53 Y220C; type: cell-based; conditions: 6 hour; for AC50: read-out: Luc P53 Y220C AC50
In short: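 Luminescence readout (One-Glo, 5 min shaking at RT, read at once) after 6 h compound exposure; cells pre-induced 24 h with 0.5 ug/mL doxycycline, 5,000/well.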

[2] = target: T1, p53 Y220C mutant protein (amino acid residues 94-293); assay: Surface Plasmon Resonance (SPR) assay, Kd_kinetic; type: binding; conditions: SPR, p53 Y220C, read-out: SPR P53 Y220C KD kinetic
In short: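 Biacore 8K SPR; 16 or 20 °C; Tris 50 mM pH 7.5, NaCl 100 mM, DTT 1 mM, Brij35 0.01%, Tween-20 0.05%, DMSO 1%. Kd_kinetic by 1:1 fit.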

[3] = luciferase reporter, NClH1299 inducible p53 Y220C, 10 uM tool compound as positive control
[4] = luciferase reporter, NClH1299 inducible p53 Y220C
[5] = thermal shift, read-out: TSA P53 Y220C dTM (10 uM)

Row | Compound | ΔTm at 100 µM ([1]; thermal shift) [°C] | IC50 (H1299 p53 Y220C; CellTiter-Glo, H1299 p53 Y220C) [nM] | IC50 (NUGC3 p53 Y220C) [nM] | IC50 (H1299 p53 R273H) [nM] | Emax (p53 Y220C; [3]) [%] | AC50 (p53 Y220C; [4]) [nM] | other results
1 | CNC(=O)c1ccc(NCC#Cc2nc3c(N[C@@H]4CCN(C)C[C@@H]4F)cc(F)cn3c2CC(F)(F)F)c(OC)c1 [Example 99, 4-{[3-(6-fluoro-8-{[(3S,4R)-3-fluoro-1-methylpiperidin-4-yl]amino}-3-(2,2,2-trifluoroethyl)imidazo[1,2-a]pyridin-2-yl)prop-2-yn-1-yl]amino}-3-methoxy-N-methylbenzamide, formic acid salt] | ≥ 10 | 750 to 1500 | 750 to 1500 | 5000 to 8000 | 80 to 90 | 750 to 1500 | –
2 | CNC(=O)c1ccc(NCC#Cc2nc3c(N[C@@H]4CCN(C)C[C@@H]4F)cccn3c2SC(F)(F)F)c(OC)c1 [Example 28, 4-{[3-(8-{[(3S,4R)-3-fluoro-1-methylpiperidin-4-yl]amino}-3-[(trifluoromethyl)sulfanyl]imidazo[1,2-a]pyridin-2-yl)prop-2-yn-1-yl]amino}-3-methoxy-N-methylbenzamide, formic acid salt] | ≥ 10 | < 750 | < 750 | 8000 to 10000 | 80 to 90 | < 750 | ΔTm at 10 µM [1, 5]: ≥ 10 °C
3 | CNC(=O)c1ccc(NCC#Cc2nc3c(NC4CCN(C)CC4)cc(NC(=O)CCl)cn3c2CC(F)(F)F)c(OC)c1 [Example 91] | ≥ 10 | > 3000 | > 3000 | ≥ 10000 | < 70 | > 3000 | –
4 | CNC(=O)c1ccc(NCC#Cc2nc3c(NC4CCN(C)CC4)cc(NC(C)=O)cn3c2CC(F)(F)F)c(OC)c1 [Example 41, 4-[(3-{6-acetamido-8-[(1-methylpiperidin-4-yl)amino]-3-(2,2,2-trifluoroethyl)imidazo[1,2-a]pyridin-2-yl}prop-2-yn-1-yl)amino]-3-methoxy-N-methylbenzamide] | 1 to 5 | > 3000 | > 3000 | ≥ 10000 | < 70 | > 3000 | –
5 | CC#Cc1nc2c(NC3CCN(C)CC3)cccn2c1CC(F)(F)F [Example 19, 1-methyl-N-[2-(prop-1-yn-1-yl)-3-(2,2,2-trifluoroethyl)imidazo[1,2-a]pyridin-8-yl]piperidin-4-amine] | 5 to 10 | > 3000 | – | ≥ 10000 | < 70 | > 3000 | Kd ([2]; kinetic KD): 100 to 1000 nM
6 | CNC(=O)c1ccc(NCC#Cc2nc3c(NC4CCN(C)CC4)cc(NC(=O)C(F)Cl)cn3c2CC(F)(F)F)c(OC)c1 (stereo not drawn) [Example 43, 4-((3-[6-(2-chloro-2-fluoroacetamido)-8-[(1-methylpiperidin-4-yl)amino]-3-(2,2,2-trifluoroethyl)imidazo[1,2-a]pyridin-2-yl]prop-2-yn-1-ylamino)-3-methoxy-N-methylbenzamide, formic acid salt] | 1 to 5 | > 3000 | > 3000 | ≥ 10000 | < 70 | > 3000 | –
7 | CN1CC[C@@H](Nc2cccn3c(CC(F)(F)F)c(C#CCN)nc23)[C@@H](F)C1 [Example 75, (3S,4R)—N-[2-(3-aminoprop-1-yn-1-yl)-3-(2,2,2-trifluoroethyl)imidazo[1,2-a]pyridin-8-yl]-3-fluoro-1-methylpiperidin-4-amine] | 1 to 5 | > 3000 | > 3000 | ≥ 10000 | < 70 | > 3000 | –
8 | COc1cc(S(C)(=O)=O)ccc1NCC#Cc1nc2c(NC3CCN(C)CC3)cc(-c3ccccc3)cn2c1CC(F)(F)F [Example 34, N-(2-{3-[(4-methanesulfonyl-2-methoxyphenyl)amino]prop-1-yn-1-yl}-6-phenyl-3-(2,2,2-trifluoroethyl)imidazo [1,2-a]pyridin-8-yl)-1-methylpiperidin-4-amine, formic acid salt] | 1 to 5 | 1500 to 3000 | 1500 to 3000 | < 5000 | < 70 | > 3000 | –
9 | [2H]C([2H])([2H])N1CC[C@@H](Nc2cccn3c(SC(F)(F)F)c(C#CCNc4ccc(C(=O)NC)cc4OC)nc23)[C@@H](F)C1 [Example 476, 4-((3-(8-(((3S,4R)-3-fluoro-1-(methyl-d3)piperidin-4-yl)amino)-3-((trifluoromethyl)thio)imidazo[1,2-a]pyridin-2-yl)prop-2-yn-1-yl)amino)-3-methoxy-N-methylbenzamide] | – | – | – | – | – | – | ΔTm at 10 µM ([1]; read-out: TSA P53 Y220C dTM): ≥ 10 °C; IC50 (H1299 p53 Y220C; NClH1299-inducible p53 Y220C cells): < 750 nM; Kd [2]: < 10 nM; AC50 (p53 Y220C; AC50, NClH1299 cells with inducible p53 Y220C): < 750 nM; Emax (p53 Y220C; Emax, NClH1299 cells with inducible p53 Y220C, 10 uM tool compound as positive control): > 90%
10 | COc1cc(S(C)(=O)=O)ccc1NCC#Cc1nc2c(NC3CCN(C)CC3)cc(O)cn2c1CC(F)(F)F [Example 27, 2-{3-[(4-methanesulfonyl-2-methoxyphenyl)amino]prop-1-yn-1-yl}-8-[(1-methylpiperidin-4-yl)amino]-3-(2,2,2-trifluoroethyl)imidazo[1,2-a]pyridin-6-ol, TFA salt] | 5 to 10 | > 3000 | > 3000 | ≥ 10000 | < 70 | > 3000 | –
11 | COc1cc(S(C)(=O)=O)ccc1NCC#Cc1nc2c(NC3CCN(C(C)=O)CC3)cccn2c1CC(F)(F)F [Example 10, 1-{4-[(2-{3-[(4-methanesulfonyl-2-methoxyphenyl)amino]prop-1-yn-1-yl}-3-(2,2,2-trifluoroethyl)imidazo[1,2-a]pyridin-8-yl)amino]piperidin-1-yl}ethanone] | 5 to 10 | 1500 to 3000 | > 3000 | ≥ 10000 | 80 to 90 | > 3000 | –
12 | COc1cc(S(C)(=O)=O)ccc1NCC#Cc1nc2c(NC3CCN(C)CC3)cc(NC(=O)OC(C)(C)C)cn2c1CC(F)(F)F [Example 31, tert-butyl N-(2-{3-[(4-methanesulfonyl-2-methoxyphenyl)amino]prop-1-yn-1-yl}-8-[(1-methylpiperidin-4-yl)amino]-3-(2,2,2-trifluoroethyl)imidazo[1,2-a]pyridin-6-yl) carbamate] | 1 to 5 | – | – | – | – | – | –
13 | CNC(=O)c1ccc(NCC#Cc2nc3c(N[C@@H]4CCN(CC(C)(C)O)C[C@@H]4F)cccn3c2SC(F)(F)F)c(OC)c1 [Example 164] | – | < 750 | – | – | 80 to 90 | < 750 | ΔTm at 10 µM [1, 5]: ≥ 10 °C; Kd ([2]; kinetic KD): < 10 nM
14 | C=Cc1c(C#CC)nc2c(NC3CCN(C)CC3)cccn12 [Example 21, N-[3-ethenyl-2-(prop-1-yn-1-yl)imidazo[1,2-a]pyridin-8-yl]-1-methylpiperidin-4-amine] | 1 to 5 | – | – | – | – | – | –
15 | CNC(=O)c1cnc(OC)c(NCC#Cc2nc3c(N[C@@H]4C[C@H]5CC[C@@H]([C@@H]4F)N5C)cccn3c2SC(F)(F)F)c1 [Example 265] | – | – | – | – | – | – | ΔTm at 10 µM ([1]; p53 Y220C, read-out: TSA P53 Y220C dTM): ≥ 10 °C; IC50 (H1299 p53 Y220C; NClH1299-inducible p53 Y220C cells, CellTiter-Glo): < 750 nM; Kd [2]: < 10 nM; AC50 (p53 Y220C; AC50, luciferase reporter, NClH1299 inducible p53 Y220C): < 750 nM; Emax (p53 Y220C; Emax, luciferase reporter, NClH1299 inducible p53 Y220C): > 90%
16 | CC#Cc1nc2c(N[C@@H]3CCN(C)C[C@@H]3F)cccn2c1CC(F)(F)F [Example 18, (3S,4R)-3-fluoro-1-methyl-N-[2-(prop-1-yn-1-yl)-3-(2,2,2-trifluoroethyl)imidazo[1,2-a]pyridin-8-yl]piperidin-4-amine] | 5 to 10 | > 3000 | – | ≥ 10000 | < 70 | > 3000 | Kd ([2]; kinetic KD): 10 to 100 nM

From patent US20260374766A1, “METHODS FOR TREATING CANCER” (Antares Therapeutics, Inc., priority 2022, published 2026)
